Data published in patent US11071735B2, “Treatment of inflammatory conditions and autoimmune diseases with glucose uptake inhibitors” (Kadmon Corporation, LLC, priority 2017, dated 2021).

Assays:
Type in all cases: cell-based
GLUT1 = molecular target: T1, GLUT1 (Homo sapiens, UniProt P11166); experiment: glycolysis assay in DLD1 WT cells (rely on GLUT1); details: DLD1-WT cells; 10 μM oligomycin, one hour
T1 construct: endogenous in cells; host or cells: DLD1 WT cancer cells
T1 sequence (P11166 1-492): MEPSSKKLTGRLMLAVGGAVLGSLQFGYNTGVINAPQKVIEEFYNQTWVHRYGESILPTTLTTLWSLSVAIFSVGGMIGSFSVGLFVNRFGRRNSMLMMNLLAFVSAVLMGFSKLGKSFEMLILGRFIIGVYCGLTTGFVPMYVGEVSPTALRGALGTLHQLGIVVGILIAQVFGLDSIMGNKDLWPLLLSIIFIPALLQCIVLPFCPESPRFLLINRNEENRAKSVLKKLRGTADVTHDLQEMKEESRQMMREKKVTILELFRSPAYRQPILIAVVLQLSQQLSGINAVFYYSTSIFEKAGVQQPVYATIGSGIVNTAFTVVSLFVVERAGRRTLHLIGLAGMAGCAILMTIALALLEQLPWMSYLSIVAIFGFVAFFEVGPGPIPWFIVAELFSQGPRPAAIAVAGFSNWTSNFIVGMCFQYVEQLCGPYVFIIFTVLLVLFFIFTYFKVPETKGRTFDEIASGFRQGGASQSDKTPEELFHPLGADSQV
Method: (§1) Cells were treated with GLUT inhibitors plus oligomycin and subsequently ATP levels were determined using Cell Titer Glo. […] FIG. 1B reports the IC50 of glycolysis inhibition for selected compounds.
(§2) Accordingly, we have investigated the use of inhibitors of GLUT transporters against activated pro-inflammatory immune cells, including but not limited to activated human CD4+ T cells. In order to understand what GLUT transporters are required to sustain glycolysis in activated T cells, we first utilized the syngeneic cancer cell lines DLD1 WT and DLD GLUT1−/− that rely on GLUT1 and GLUT3 expression, respectively, for glucose transport. Within this system, we have identified small molecules that simultaneously have the property of inhibiting both GLUT1 and GLUT3 mediated glucose transport. In addition, we have confirmed the GLUT1-selective nature of a published small molecule inhibitor of GLUT1 (Chem Med Chem. 2016 Oct. 19; 11(20):2261-2271).
(§3) Determination of glucose uptake/GLUT activity (glycolysis assay): HT1080 cells, DLD1 cells (WT and GLUT1−/−) and human CD4+ T cells were plated in 96-well plates. Cells were exposed to the combination of 10 μM Oligomycin (to block mitochondrial-derived ATP) and the glucose uptake inhibitors disclosed herein for one-hour, after which glycolytically-derived ATP was measured with the Cell Titer-Glo assay kit (Promega). Dose-response curves of the glucose uptake inhibitors disclosed herein were used to determine the IC50 for GLUT activity.

GLUT3 = molecular target: T2, GLUT3 (Homo sapiens, UniProt P11169); experiment: glycolysis assay in DLD1 GLUT1−/− cells (rely on GLUT3); details: DLD1-KO (GLUT1−/−) cells; 10 μM oligomycin, one hour
T2 construct: endogenous in cells; host or cells: DLD1 GLUT1−/− (knock-out) cancer cells
T2 sequence (P11169 1-496): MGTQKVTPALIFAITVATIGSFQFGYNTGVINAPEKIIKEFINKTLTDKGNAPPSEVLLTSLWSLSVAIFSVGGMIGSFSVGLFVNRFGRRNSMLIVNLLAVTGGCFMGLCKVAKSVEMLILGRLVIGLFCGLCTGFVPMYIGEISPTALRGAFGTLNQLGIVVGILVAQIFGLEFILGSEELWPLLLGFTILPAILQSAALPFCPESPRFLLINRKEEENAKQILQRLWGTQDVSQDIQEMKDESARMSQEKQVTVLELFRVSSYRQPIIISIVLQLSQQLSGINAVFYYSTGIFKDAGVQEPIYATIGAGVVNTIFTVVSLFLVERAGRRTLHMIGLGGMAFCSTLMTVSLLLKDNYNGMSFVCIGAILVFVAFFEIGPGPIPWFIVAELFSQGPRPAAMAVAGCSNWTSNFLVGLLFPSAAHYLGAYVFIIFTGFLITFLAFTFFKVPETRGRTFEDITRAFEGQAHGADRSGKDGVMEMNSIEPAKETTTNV
Method: as §1, §2, §3

GLUT = experiment: glycolysis assay (oligomycin + Cell Titer-Glo ATP readout) in HT1080 cells; details: 10 μM oligomycin, one hour, glycolytically-derived ATP
From the text: The combination of inhibitors of both oxidative phosphorylation and glycolysis synergistically suppress cellular ATP levels. Therefore, our assay utilizes the combination of our glucose uptake inhibitors with oligomycin, a well-characterized inhibitor of ATP synthase. Because oligomycin inhibits ATP derived from oxidative phosphorylation, any remaining ATP production is derived from glycolysis. By reading out cellular ATP levels using the Promega
Titer Glo kit, we can assess the extent of glycolysis inhibition by our glucose uptake inhibitors. Using this experimental set-up in HT1080 cancer cells, we determined the IC50 of glycolysis inhibition for the compounds.
as §3

Compound | IC50 (GLUT1) [nM] | IC50 (GLUT3) [nM] | IC50 (GLUT) [nM]
CCOc1ccc2nc(-c3cccc(OCC(=O)NC4CC4)c3)nc(Nc3ccc(-c4cn[nH]c4)cc3)c2c1 [Ex. 1, 2-(3-(4-((4-(1H-pyrazol-4-yl)phenyl)amino)-6-ethoxyquinazolin-2-yl)phenoxy)-N-cyclopropylacetamide] | 52 | 129 | 242
CCOc1ccc2nc(-c3cccc(OCC(=O)NC(C)(C)C)c3)nc(Nc3ccc(-c4cn[nH]c4)cc3)c2c1 [Ex. 3, 2-(3-(4-((4-(1H-pyrazol-4-yl)phenyl)amino)-6-ethoxyquinazolin-2-yl)phenoxy)-N-(tert-butyl)acetamide] | 59.6 | 33.6 | 44
CCOc1ccc2nc(-c3cccc(OCC(=O)NC(C)(C)CC)c3)nc(Nc3ccc(-c4cn[nH]c4)cc3)c2c1 [Ex. 4, 2-(3-(4-((4-(1H-pyrazol-4-yl)phenyl)amino)-6-ethoxyquinazolin-2-yl)phenoxy)-N-(tert-pentyl)acetamide] | 86 | 148 | 50
CCOc1ccc2nc(-c3cccc(OCC(=O)NC4CCCC4)c3)nc(Nc3ccc(-c4cn[nH]c4)cc3)c2c1 [Ex. 5, 2-(3-(4-((4-(1H-pyrazol-4-yl)phenyl)amino)-6-ethoxyquinazolin-2-yl)phenoxy)-N-cyclopentylacetamide] | 81 | 104 | 92
CCOc1ccc2nc(-c3cccc(OCC(=O)NC4CCC4)c3)nc(Nc3ccc(-c4cn[nH]c4)cc3)c2c1 [Ex. 6, 2-(3-(4-((4-(1H-pyrazol-4-yl)phenyl)amino)-6-ethoxyquinazolin-2-yl)phenoxy)-N-cyclobutylacetamide] | 94 | 120 | 141
CCOc1ccc2nc(-c3cccc(OCC(=O)NC(CC)CC)c3)nc(Nc3ccc(-c4cn[nH]c4)cc3)c2c1 [Ex. 7, 2-(3-(4-((4-(1H-pyrazol-4-yl)phenyl)amino)-6-ethoxyquinazolin-2-yl)phenoxy)-N-(pentan-3-yl)acetamide] | 98 | 233 | 128
COc1ccc2nc(-c3cccc(OCC(=O)NC(C)C)c3)nc(Nc3ccc(-c4cn[nH]c4)cc3)c2c1 [Ex. 8, 2-(3-(4-((4-(1H-pyrazol-4-yl)phenyl)amino)-6-methoxyquinazolin-2-yl)phenoxy)-N-isopropylacetamide] | 261 | 97.6 | 173
COc1ccc2nc(-c3cccc(OCC(=O)NC4CC4)c3)nc(Nc3ccc(-c4cn[nH]c4)cc3)c2c1 [Ex. 9, 2-(3-(4-((4-(1H-pyrazol-4-yl)phenyl)amino)-6-methoxyquinazolin-2-yl)phenoxy)-N-cyclopropylacetamide] | 529 | 76.1 | 367
COc1ccc2nc(-c3cccc(OCC(=O)NC4CCCC4)c3)nc(Nc3ccc(-c4cn[nH]c4)cc3)c2c1 [Ex. 10, 2-(3-(4-((4-(1H-pyrazol-4-yl)phenyl)amino)-6-methoxyquinazolin-2-yl)phenoxy)-N-cyclopentylacetamide] | 40.5 | 110 | 58.9
COc1ccc2nc(-c3cc(F)cc(OCC(=O)NC(C)C)c3)nc(Nc3ccc(-c4cn[nH]c4)cc3)c2c1 [Ex. 11, 2-(3-(4-((4-(1H-pyrazol-4-yl)phenyl)amino)-6-methoxyquinazolin-2-yl)-5-fluorophenoxy)-N-isopropylacetamide] | 3480 | 325 | 1350
CCCNC(=O)COc1cccc(-c2nc(Nc3ccc(-c4cn[nH]c4)cc3)c3cc(OC)ccc3n2)c1 [Ex. 12, 2-(3-(4-((4-(1H-pyrazol-4-yl)phenyl)amino)-6-methoxyquinazolin-2-yl)phenoxy)-N-propylacetamide] | 598 | 166 | 248
COc1ccc2nc(-c3cccc(OCC(=O)NC(C)(C)C)c3)nc(Nc3ccc(-c4cn[nH]c4)cc3)c2c1 [Ex. 13, 2-(3-(4-((4-(1H-pyrazol-4-yl)phenyl)amino)-6-methoxyquinazolin-2-yl)phenoxy)-N-(tert-butyl)acetamide] | 86.9 | 38.9 | 54
COc1ccc2nc(-c3cccc(OCC(=O)NCC(C)C)c3)nc(Nc3ccc(-c4cn[nH]c4)cc3)c2c1 [Ex. 14, 2-(3-(4-((4-(1H-pyrazol-4-yl)phenyl)amino)-6-methoxyquinazolin-2-yl)phenoxy)-N-isobutylacetamide] | 47 | 134 | 189
COc1ccc2nc(-c3cccc(OCC(=O)NC4CC(F)(F)C4)c3)nc(Nc3ccc(-c4cn[nH]c4)cc3)c2c1 [Ex. 15, 2-(3-(4-((4-(1H-pyrazol-4-yl)phenyl)amino)-6-methoxyquinazolin-2-yl)phenoxy)-N-(3,3-difluorocyclobutyl)acetamide] | 352 | 86.6 | 183
CCCNC(=O)COc1cccc(-c2nc(Nc3ccc(-c4cn[nH]c4)cc3)c3cc(OCC)ccc3n2)c1 [Ex. 16, 2-(3-(4-((4-(1H-pyrazol-4-yl)phenyl)amino)-6-ethoxyquinazolin-2-yl)phenoxy)-N-propylacetamide] | 1020 | 127 | 536
CCOc1ccc2nc(-c3cccc(OCC(=O)NCC(C)C)c3)nc(Nc3ccc(-c4cn[nH]c4)cc3)c2c1 [Ex. 17, 2-(3-(4-((4-(1H-pyrazol-4-yl)phenyl)amino)-6-ethoxyquinazolin-2-yl)phenoxy)-N-isobutylacetamide] | 334 | 92.2 | 166
CCOc1ccc2nc(-c3cccc(OCC(=O)NC(C)CC)c3)nc(Nc3ccc(-c4cn[nH]c4)cc3)c2c1 (stereo not drawn) [Ex. 18, 2-(3-(4-((4-(1H-pyrazol-4-yl)phenyl)amino)-6-ethoxyquinazolin-2-yl)phenoxy)-N-(sec-butyl)acetamide] | 99.5 | 43.9 | 89
CCOc1ccc2nc(-c3cccc(OCC(=O)NC4CC(F)(F)C4)c3)nc(Nc3ccc(-c4cn[nH]c4)cc3)c2c1 [Ex. 19, 2-(3-(4-((4-(1H-pyrazol-4-yl)phenyl)amino)-6-ethoxyquinazolin-2-yl)phenoxy)-N-(3,3-difluorocyclobutyl)acetamide] | 257 | 66.1 | 169
COc1ccc2nc(-c3cccc(OCC(=O)NC(C)C)c3)nc(Nc3ccc(-c4cn[nH]c4)cc3F)c2c1 [Ex. 20, 2-(3-(4-((2-fluoro-4-(1H-pyrazol-4-yl)phenyl)amino)-6-methoxyquinazolin-2-yl)phenoxy)-N-isopropylacetamide] | 709 | 177 | 423
CCOc1ccc2nc(-c3cccc(OCC(=O)NC(C)C)c3)nc(Nc3ccc(-c4cn[nH]c4)cc3F)c2c1 [Ex. 21, 2-(3-(6-ethoxy-4-((2-fluoro-4-(1H-pyrazol-4-yl)phenyl)amino)quinazolin-2-yl)phenoxy)-N-isopropylacetamide] | 786 | 248 | 408
